Data as given in patent US12636366B2, “Ruthenium (II) complexes and conjugates thereof for use as photosensitizer agent in photodynamic therapy” (Paris Sciences et Lettres, priority 2019, dated 2026).
Like-named read-outs stand apart in the source and are kept apart here.

Key:
[1] = Singlet oxygen measurement, direct evaluation (1O2 luminescence at 1270 nm); format: physicochemical; conditions: direct method, excitation at 450 nm; for Singlet oxygen quantum yield Φ(1O2), CH3CN Direct / Singlet oxygen quantum yield Φ(1O2), D2O Direct: average of three, +-10%
Procedure: The samples were prepared in an air saturated CH3CN or D2O solution with an absorbance of 0.2 at 450 nm. This solution was irradiated in fluorescence quartz cuvettes (width 1 cm) using a mounted M450LP1 LED (Thorlabs) whose irradiation, centered at 450 nm, has been focused with aspheric condenser lenses. The intensity of the irradiation has been varied using a T-Cube LED Driver (Thorlabs) and measured with an optical power and energy meter. The emission signal was focused and collected at right angle to the excitation pathway and directed to a Princeton Instruments Acton SP-2300i monochromator equipped with 600 g/mm grating blazed at 1200 nm. A longpass glass filter was placed in front of the monochromator entrance slit to cut off light at wavelengths shorter than 850 nm. The slits for detection were fully open. As a detector an EO-817L IR-sensitive liquid nitrogen cooled germanium diode detector (North Coast Scientific Corp.) has been used. The singlet oxygen luminesce at 1270 nm was measured by recording spectra from 1100 to 1400 nm. For the data analysis, the singlet oxygen luminescence peaks at different irradiation intensities were integrated. The resulting areas were plotted against the percentage of the irradiation intensity and the slope of the linear regression calculated. The absorbance of the sample was corrected with an absorbance correction factor. As reference for the measurement in an CH3CN solution phenalenone (Φphenaleone=0.95)^33 and for the measurement in a D2O solution [Ru(bipy)3]Cl2 (ΦRu(bipy)3C12=0.22)^31 was used and the singlet oxygen quantum yields were calculated using the following formula: […]
Additionally, the DFT calculations were able to characterize the lowest energy absorption band as a MLCT transition with a triplet state. With this in hand, a quantitative evaluation of singlet oxygen (^1O2) was performed to assess the potential of the PSs in PDT, by two methods: 1) direct by measurement of the luminescence of ^1O2, 2) indirect by measurement of the variation in absorbance of a reporter molecule, as described above. In the first method, the efficiency of the production of ^1O2 was assessed by measuring its phosphorescence at 1270 nm. Worthy of note, the possibility of detection in this experiment is affected by its environment as well as the used setup. With the setup used in this study, we could only detect Φ(^1O2) larger than 0.20 based on a low peak-to-noise ratio. In the second method (indirect method), ^1O2 is reacting with imidazole (in CH3CN) and histidine (in PBS buffer) to a trans-annular peroxide adduct. This can further quench the absorbance of the reporter molecule p-nitrosodimethyl aniline (RNO), which has been monitored by UV/VIS spectroscopy. In both methods, the ^1O2 production has been compared with a reference molecule, namely a solution of phenalenone in CH3CN (Φ(^1O2)phenaleone=0.95)^33 and a solution of [Ru(bipy)3]Cl2 in water Φ(^1O2)Ru(bipy)3Cl2=0.22)^31. […] In comparison, the values changed drastically in an aqueous solution. […] They have untypically low Φ(^1O2) values in CH3CN (0.22-0.35) for Ru(II) polypyridyl complexes. Subsequently, the ^1O2 production was also quite low in an aqueous environment.

[2] = test system: human glioblastoma cells (U87); assay: Dark and light cytotoxicity, resazurin cell viability assay, U87; format: cell-based; conditions: for PI (IC50 in the dark/IC50 upon light irradiation): U87, 480 nm
Procedure: (§1) HeLa and CT-26 cell lines were cultured in DMEM media (Gibco, Life Technologies, USA) supplemented with 10% of fetal calf serum (Gibco). U87 and U373 cell lines were cultured in MEM media with addition of 1% of MEM NEAA (non-essential aminoacids) (Gibco) and 10% of fetal calf serum. RPE-1 cells were cultured in DMEM/F-12 (Gibco) supplemented with 10% of fetal calf serum. RPE-1 stable cells lines were cultured as RPE-1 cells with addition of geneticin (0.5 mg/ml) (Gibco). All cell lines were complemented with 100 U/ml penicillin-streptomycin mixture (Gibco), and maintained in humidified atmosphere at 37° C. and 5% of CO2.
(§2) Dark and light cytotoxicity of the Ru(II) complexes was assessed by fluorometric cell viability assay using resazurin (ACROS Organics). For dark and light cytotoxicity, cells were seeded in triplicates in 96 well plates at a density of 4000 cells per well in 100 μl, 24 h prior to treatment. The medium was then replaced with increasing concentration of the tested complexes and cells were incubated for 4 h. Medium was then replaced for fresh complete medium. Cells used for light cytotoxicity experiment were exposed to: 480 nm light for 10 min, 510 nm for 40 min, 540 for 60 min or 595 nm for 120 min in a 96-well plate using a LUMOS-BIO photoreactor (Atlas Photonics). Each well was individually illuminated with a LED at constant current. After irradiation cells were kept for another 44 h in the incubator and the medium was replaced by fresh complete medium containing resazurin (0.2 mg ml^−1 final concentration). After 4 h incubation at 37° C., the fluorescence signal of the resorufin product was read by SpectraMax M5 microplate reader (ex: 540 nm em: 590 nm). IC50 values were calculated using GraphPad Prism software.
(§3) The potential of the complexes to act as PDT PSs was determined on mouse colon carcinoma cells (CT-26), human glioblastoma cells (U87 and U373), human cervical carcinoma cells (HeLa) as well as non-cancerous retina pigmented epithelial cell line (RPE-1) according to the method described above. […] Ideally, a PDT PS should be non-toxic in the dark and highly toxic upon light activation. […] The toxicity of the compounds upon light irradiation (480 nm, 10 min, 3.21 J cm^−2) was then investigated.

[3] = test system: non-cancerous retina pigmented epithelial cell line (RPE-1); assay: Dark and light cytotoxicity, resazurin cell viability assay, RPE-1; format: cell-based; conditions: for PI (IC50 in the dark/IC50 upon light irradiation): RPE-1, 480 nm
Procedure: as §1, §2, §3

[4] = test system: CT-26 mouse colon carcinoma cells; assay: Dark and light cytotoxicity, resazurin cell viability assay, CT-26; format: cell-based; conditions: for PI (IC50 in the dark/IC50 upon light irradiation): CT-26, 480 nm
Procedure: as §1, §2, §3

[5] = test system: human cervical carcinoma cells (HeLa); assay: Dark and light cytotoxicity, resazurin cell viability assay, HeLa; format: cell-based; conditions: for PI (IC50 in the dark/IC50 upon light irradiation): 480 nm
Procedure: as §1, §2, §3

[6] = test system: human glioblastoma cells (U373); assay: Dark and light cytotoxicity, resazurin cell viability assay, U373; format: cell-based; conditions: for PI (IC50 in the dark/IC50 upon light irradiation): U373, 480 nm
Procedure: as §1, §2, §3

[7] = U87, light 480 nm, 10 min, 3.21 J cm^−2, read-out: IC50 Light
[8] = RPE-1, dark, read-out: IC50 Dark
[9] = RPE-1, light 480 nm, 10 min, 3.21 J cm^−2, read-out: IC50 Light
[10] = CT-26, dark, 4 h incubation, read-out: IC50 Dark
[11] = CT-26, light 480 nm, 10 min, 3.21 J cm^−2, read-out: IC50 Light
[12] = light 480 nm, 10 min, 3.21 J cm^−2, read-out: IC50 Light
[13] = U373, dark, read-out: IC50 Dark
[14] = U373, light 480 nm, 10 min, 3.21 J cm^−2, read-out: IC50 Light

Compound	Singlet oxygen quantum yield Φ(1O2), CH3CN Direct [1]	Singlet oxygen quantum yield Φ(1O2), D2O Direct [1]	PI (IC50 in the dark/IC50 upon light irradiation) ([2]; 10 min)	IC50 ([2]; U87, dark, read-out: IC50 Dark)	IC50 [2, 7]	IC50 [3, 8]	IC50 [3, 9]	IC50 [4, 10]	IC50 [4, 11]	IC50 ([5]; dark, read-out: IC50 Dark)	IC50 [5, 12]	IC50 [6, 13]	IC50 [6, 14]	PI (IC50 in the dark/IC50 upon light irradiation) ([4]; 10 min)	Singlet oxygen quantum yield Φ(1O2), D2O Direct (not determinable) [1]	further results
F[P-](F)(F)(F)(F)F.F[P-](F)(F)(F)(F)F.[Ru+2].c1ccc(-c2ccccn2)nc1.c1cnc2c(c1)ccc1cccnc12.c1cnc2c(c1)ccc1cccnc12 [Compound 1, (Bipyridine)bis(1,10-phenanthroline)ruthenium(II)hexafluorophosphate]	0.57	0.27	>1	> 100 µM	93.7 ± 2.5 µM	> 100 µM	> 100 µM	> 100 µM	> 100 µM	> 100 µM	> 100 µM	> 100 µM	> 100 µM	–	–	–
Cc1ccnc(-c2cc(C)ccn2)c1.F[P-](F)(F)(F)(F)F.F[P-](F)(F)(F)(F)F.[Ru].c1cnc2c(c1)ccc1cccnc12.c1cnc2c(c1)ccc1cccnc12 [Compound 2, (4,4′-Dimethyl-2,2′-bipyridine)bis(1,10-phenanthroline)ruthenium(II)hexafluorophosphate]	0.69	0.31	>1	> 100 µM	71.4 ± 7.54 µM	> 100 µM	> 100 µM	> 100 µM	91.2 ± 7.54 µM	> 100 µM	> 100 µM	> 100 µM	> 100 µM	>1	–	–
(2,2′-bipyridine-4,4′-carboxamide)bis(1,10-phenanthroline)ruthenium(II) hexafluorophosphate [Compound 4]	0.62	0.25	–	> 100 µM	> 100 µM	> 100 µM	> 100 µM	> 100 µM	72.6 ± 7.44 µM	> 100 µM	> 100 µM	> 100 µM	> 100 µM	>1	–	–
(4,4′-Dibromo-2,2′-bipyridine)bis(1,10-phenanthroline)ruthenium(II) hexafluorophosphate [Compound 3]	0.55	not detectable	–	> 100 µM	> 100 µM	> 100 µM	> 100 µM	> 100 µM	85.7 ± 9.47 µM	> 100 µM	> 100 µM	> 100 µM	> 100 µM	>1	n.d. (n.d. = not determinable, Φ(^1O2) < 0.20)	–
(4,4′-Dimethyl-2,2′-bipyridine)bis(4,7-diphenyl-1,10-phenanthroline)ruthenium(II) hexafluorophosphate [Compound 6]	0.61	not detectable	42.5	28.4 ± 1.97 µM	0.67 ± 0.13 µM	28.8 ± 0.94 µM	0.825 ± 0.03 µM	3.09 ± 0.3 µM	0.19 ± 0.04 µM	13.6 ± 1.3 µM	0.61 ± 0.06 µM	23.4 ± 0.53 µM	1.89 ± 0.07 µM	16.3	n.d. (n.d. = not determinable, Φ(^1O2) < 0.20)	PI (IC50 in the dark/IC50 upon light irradiation) ([3]; 10 min): 34.9; PI ([4]; CT-26, 510 nm 40 min): 20.6; PI ([4]; CT-26, 540 nm 60 min): 9.6; PI ([4]; CT-26, 595 nm 2 h): 23.47; IC50 ([4]; CT-26, dark control of the 510 nm 40 min experiment, read-out: IC50 Dark): 4.18 ± 0.56 µM; IC50 ([4]; CT-26, dark control of the 540 nm 60 min experiment, read-out: IC50 Dark): 3.27 ± 0.64 µM; IC50 ([4]; CT-26, dark control of the 595 nm 2 h experiment, 2 h at 37° C. in non-CO2 atmosphere, read-out: IC50 Dark): 1.408 ± 0.003 µM; IC50 ([4]; CT-26, light 540 nm 60 min, read-out: IC50 Light): 0.34 ± 0.005 µM; IC50 ([4]; CT-26, light 595 nm 2 h, no CO2 atmosphere during irradiation, read-out: IC50 Light): 0.06 ± 0.004 µM; PI (IC50 in the dark/IC50 upon light irradiation) ([5]; 10 min): 22.2; PI (IC50 in the dark/IC50 upon light irradiation) ([6]; 10 min): 12.37
((E,E′)-4,4′-Bis(N,N′-dimethylaminovinyl)-2,2′-bipyridine)bis(1,10-phenanthroline)ruthenium(II) hexafluorophosphate [Compound 5]	0.24	–	–	> 100 µM	> 100 µM	> 100 µM	> 100 µM	> 100 µM	52.5 ± 6.04 µM	> 100 µM	> 100 µM	> 100 µM	> 100 µM	>2	n.d. (n.d. = not determinable, Φ(^1O2) < 0.20)	–
((E,E′)-4,4′-Bis(N,N′-dimethylaminovinyl)-2,2′-bipyridine)bis(4,7-diphenyl-1,10-phenanthroline)ruthenium(II) hexafluorophosphate [Compound 7]	0.22	–	>12.7	> 100 µM	7.9 ± 0.54 µM	> 100 µM	8.95 ± 0.5 µM	94.5 ± 7.38 µM	6.62 ± 0.7 µM	> 100 µM	15.2 ± 1.29 µM	> 100 µM	14.8 ± 0.81 µM	14.3	n.d. (n.d. = not determinable, Φ(^1O2) < 0.20)	PI (IC50 in the dark/IC50 upon light irradiation) ([3]; 10 min): >11.2; PI (IC50 in the dark/IC50 upon light irradiation) ([5]; 10 min): >6.5; PI (IC50 in the dark/IC50 upon light irradiation) ([6]; 10 min): >6.7
